Data: patent US20020115688A1, “Screen for glutamate reuptake inhibitors, stimulators, and modulators” (priority 2000, published 2002)
Like-named read-outs stand apart in the source and are kept apart here.

Assays:
[1] = target: T1, glutamate transporters (GLAST and GLT1); assay: [3H]-4MG binding to rat brain membrane homogenates; conditions: for displacement of 4MG binding: at or above 100 μM, FIG. 5; for IC50: read-out: IC50 for displacement of [3H]-4MG binding
T1 construct: Bmax; other: rat brain membrane homogenates; other: 20 nM [3H]-4MG, 15 minutes at 4° C; KD; association t½
Method: (§1) Rat brain tissue, either freshly dissected or stored frozed at −20° C. is homogenized in HEPES buffer containing Na^+(5 mM HEPES, 96 mM NaCl, 1.8 mM CaCl2, 1 mM MgCl2 (pH 7.5 at 25° C.)), and membranes are washed twice in the same buffer using standard methods for subcellular fractionation and the preparation of brain membranes. Brain tissue is weighed and homogenized in 15 ml of assay buffer using a Polytron tissue homogenizer (setting 4, 10-15 seconds). […] The homogenate is centrifuged again (as above) and the pellet re-suspended in 20 to 25 volumes of buffer. Membrane homogenates make up 20% of final assay volume. Binding assays are also performed in the above buffer.
(§2) The range of concentrations of the receptor compound (for example, 10 nM-1 mM) is varied dependent on whether all or only a trace of the receptor compound is labeled. Following incubation of the receptor compounds (bound to the transporters) in the presence or absence of test compounds, binding is terminated by rapid filtration through Whatman GF/B filter discs and washing 3 times with buffer using a Brandel cell harvester. Binding is determined by any technique suitable for the label used. For isotope labels, scintillation spectrometry is preferred.
(§3) Forebrain tissue from female Sprague Dawley rats was homogenised in HEPES buffer containing Na^+, and membranes were washed twice in the same buffer. Binding experiments were also performed in this buffer. […] Binding was determined by scintillation spectrometry. A full range of association, dissociation, saturation and inhibition studies was performed over varying incubation times (up to 60 min). Data were analyzed using computer-assisted curve fitting. Values are expressed as mean of at least triplicate determinations and multiple experiments.
(§4) A full range of association, dissociation, saturation and inhibition studies was performed over varying incubation times (up to 60 min). Data were analyzed using computer-assisted curve fitting. Values cited are expressed as mean of at least triplicate determinations and multiple experiments.

GLAST = target: T2, GLAST (Rattus norvegicus, UniProt P24942); conditions: at concentrations below 1 mM; cited from earlier work
T2 sequence (P24942 1-543): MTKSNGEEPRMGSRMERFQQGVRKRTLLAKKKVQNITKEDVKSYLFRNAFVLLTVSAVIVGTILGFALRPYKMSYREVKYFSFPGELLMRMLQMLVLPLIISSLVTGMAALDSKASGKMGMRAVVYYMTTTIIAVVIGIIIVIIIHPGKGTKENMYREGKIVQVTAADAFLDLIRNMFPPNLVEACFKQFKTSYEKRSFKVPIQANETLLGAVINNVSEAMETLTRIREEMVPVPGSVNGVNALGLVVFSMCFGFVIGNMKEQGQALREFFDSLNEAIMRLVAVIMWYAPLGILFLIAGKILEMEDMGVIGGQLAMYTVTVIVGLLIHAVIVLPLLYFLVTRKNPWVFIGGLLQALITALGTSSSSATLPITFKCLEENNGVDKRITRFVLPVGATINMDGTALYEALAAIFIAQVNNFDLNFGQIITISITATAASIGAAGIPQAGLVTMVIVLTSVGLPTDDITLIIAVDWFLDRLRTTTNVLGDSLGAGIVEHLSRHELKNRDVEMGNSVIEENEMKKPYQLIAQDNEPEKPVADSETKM

[2] = tested on: glutamate transporters (GLAST and GLT1); assay: [3H]-4MG binding to rat brain membrane homogenates; conditions: FIG. 5
Method: as §1, §2, §3, §4

[3] = Hydrolysis of prodrug to the acid form; format: in vitro ADME; conditions: prodrug ester cleavage
Excerpt: The ester, carbonate, and amine bond in any prodrug forms of compounds identified by the disclosed method can be readily cleaved in vivo. Therefore, prodrug compositions can be hydrolyzed to the corresponding acids form in plasma.

[4] = 20 nM [3H]-4MG, 15 minutes at 4° C., FIG. 3, FIG. 4

C[C@H](C[C@H](N)C(=O)O)C(=O)O [4MG, (2S,4R)-4-methyl glutamic acid]
Kd ([1]; rat brain membrane homogenates, FIG. 1): 5.4 µM

C=C(C)[C@H]1CN[C@H](C(=O)O)[C@H]1CC(=O)O [KA, kainate]
binding to GLAST (GLAST): do not bind

N[C@@H](Cn1cc(I)c(=O)[nH]c1=O)C(=O)O [IW, iodowillardine]
effect on 4MG and/or D-aspartate binding to GluTs [2]: failed to affect

Cc1onc(O)c1CC(N)C(=O)O (stereo not drawn) [AMPA, α-amino-3-hydroxy-5-methyl-4-isoxazolepropionate]
displacement of 4MG binding [1]: failed to significantly displace

NCCCC(=O)O [GABA, γ-aminobutyric acid]
effect on 4MG and/or D-aspartate binding to GluTs [2]: failed to affect

N[C@@H](Cn1cc(F)c(=O)[nH]c1=O)C(=O)O [FW, fluorowillardiine]
displacement of 4MG binding [1]: failed to significantly displace

CN[C@H](CC(=O)O)C(=O)O [NMDA, N-methyl-D-aspartate]
displacement of 4MG binding [1]: failed to significantly displace

N[C@@H](CC(=O)O)C(=O)O [L-aspartate]
IC50 [1, 4]: 7.5 µM

N[C@@H](COS(=O)(=O)O)C(=O)O [SOS, L-serine-O-sulphate]
IC50 [1]: 40 µM

CC(C)[C@H]1CN[C@H](C(=O)O)[C@H]1CC(=O)O [DHK, L-Dihydrokainate]
binding to GLAST (GLAST): do not bind

CC(CC(=O)O)C(N)C(=O)O (racemic) [3MG, (±)-threo-3-methylglutamate]
binding to GLAST (GLAST): do not bind

N[C@H](C(=O)O)[C@H]1C[C@H]1C(=O)O [CCG-III, (2S,3S,4R)-2-(carboxycyclopropyl)glycine]
IC50 [1, 4]: 1.2 µM

O=C(O)[C@H]1CN[C@H](C(=O)O)C1 [PDC, L-trans-pyrrolidine-2,4-dicarboxylate]
IC50 [1, 4]: 2.9 µM

NCC(=O)O [GLY, glycine]
effect on 4MG and/or D-aspartate binding to GluTs [2]: failed to affect

COC(=O)[C@H](C)C[C@H](N)C(=O)OC [compound 2, (2S,4R)-4-methyl glutamic acid dimethyl ester]
hydrolysis to (2S,4R)-4-methyl glutamic acid (1) [3]: readily hydrolyzed

CC(C)(C)c1o[nH]c(=O)c1CC(N)C(=O)O (stereo not shown) [ATPA]
effect on 4MG and/or D-aspartate binding to GluTs [2]: failed to affect
